Key:
[1] = molecular target: T1, Human telomerase purified from telomerase-overexpressing HEK293T cells (Homo sapiens, UniProt O14746); test: Direct (non-PCR) primer extension telomerase activity assay, purified telomerase; type: biochemical; settings: purified telomerase
T1 construct: made in house; host or cells: HEK293T (telomerase-overexpressing)
Experimental: Primer-Extension Telomerase Activity Assays. […] ID NO: 1) (2 μM)].

[2] = molecular target: T2, endogenous telomerase in MCF-7 and A549 cells (Homo sapiens, UniProt O14746); test: Endogenous telomerase activity after cell treatment (primer extension); type: cell-based; settings: 10 μM, 24 h
T2 construct: endogenous in cells; host or cells: MCF-7 and A549
Experimental: For FIG. 4C, the control or treated cells were prepared and collected as pellets of 5×10^6 cells each at NW and pellets were shipped to CMRI on dry ice. Frozen cell pellets were thawed on wet ice and suspended in 1 mL telomerase buffer supplemented with 1 mM PMSF. Endogenous telomerase was immunopurified and assayed as described.

[3] = tested on: VA-13; test: Cell viability, telomerase-negative cells; type: cell-based; settings: VA-13, up to 100 μM
[4] = molecular target: T3, telomerase in MCF7 cells (Homo sapiens, UniProt O14746); test: Compound washout TRAP analysis; type: cell-based
T3 construct: endogenous in cells; host or cells: MCF-7
Experimental: Compound Washout TRAP analysis. MCF-7 cells were plated in 96 well plates and allowed to attach for 24 h. Media was removed, and fresh media containing various concentrations of compound was added, and the plate was incubated for 24 h. Media was removed, cells were washed 2 times with PBS, and fresh media without compound was added. Cells were incubated at 37° C. for an additional “X” hours. […] The cell extract was then centrifuged at 12,000 g for 20 min at 4° C. to remove cell debris. Note: “fresh” media constitutes media supplemented with 10% Fetal Bovine Serum (FBS) and 1% pen/strep that has not been previously used for cell culture (e.g., not conditioned media”). TRAP analysis was conducted as above.

[5] = tested on: MCF-7 proteome; test: Competitive gel imaging with 5-iodoacetamido-fluorescein (competitive ABPP); type: binding, human; settings: 10 nM to 100 μM, 1 hr, then fluorescein-iodoacetamide 10 μM
Experimental: Competitive Gel Image Analysis. MCF-7 cells were cultured in DMEM media supplemented with 10% Fetal Bovine Serum (FBS), 1% pen/strep and with 5% CO2 and 37° C. Cells were plated cultured for 3 days. Flasks were rinsed twice with PBS and treated with 0.05% trypsin-EDTA (Thermo Fisher) to detach cells. The cell suspension was washed twice in PBS and the cell pellet was resuspended in 200 μl of M-PER extraction reagent (Thermo Fisher)/10^6 cells, and incubated for 30 min. Cell extracts were transferred to microcentrifuge tubes, 200 μl/tube, and centrifuged at 12,000×g for 20 min to remove cell debris. The corresponding lysate was then further diluted to a total protein concentration of 2 mg/mL as measured by Nanodrop (Thermo Fisher). 48 μL of MCF-7 lysate was added to twelve microcentrifuge tubes (six per compound), followed by treatment of cell lysate with 1 μL solution of NU-1/chrolactomycin (equating to doses ranging from 10 nM to 100 μM). The samples were incubated for 1 hr, followed by addition of 1 μl of 5-iodoacetamido-fluorescein to a final concentration of 10 μM. The samples were again incubated for 1 hr, followed by quenching the reaction with 15 μL NuPAGE LDS Sample Buffer (4×). […]

[6] = Liver microsomal stability assay; type: in vitro ADME; settings: in words
Experimental: Liver Microsomal Stability Assay. Assay was conducted using the Corning UltraPool HLM 150 Mixed Gender microsomal kit (Corning Life Sciences) according to the manufacturer's protocol.

T3 sequence (O14746 whole entry): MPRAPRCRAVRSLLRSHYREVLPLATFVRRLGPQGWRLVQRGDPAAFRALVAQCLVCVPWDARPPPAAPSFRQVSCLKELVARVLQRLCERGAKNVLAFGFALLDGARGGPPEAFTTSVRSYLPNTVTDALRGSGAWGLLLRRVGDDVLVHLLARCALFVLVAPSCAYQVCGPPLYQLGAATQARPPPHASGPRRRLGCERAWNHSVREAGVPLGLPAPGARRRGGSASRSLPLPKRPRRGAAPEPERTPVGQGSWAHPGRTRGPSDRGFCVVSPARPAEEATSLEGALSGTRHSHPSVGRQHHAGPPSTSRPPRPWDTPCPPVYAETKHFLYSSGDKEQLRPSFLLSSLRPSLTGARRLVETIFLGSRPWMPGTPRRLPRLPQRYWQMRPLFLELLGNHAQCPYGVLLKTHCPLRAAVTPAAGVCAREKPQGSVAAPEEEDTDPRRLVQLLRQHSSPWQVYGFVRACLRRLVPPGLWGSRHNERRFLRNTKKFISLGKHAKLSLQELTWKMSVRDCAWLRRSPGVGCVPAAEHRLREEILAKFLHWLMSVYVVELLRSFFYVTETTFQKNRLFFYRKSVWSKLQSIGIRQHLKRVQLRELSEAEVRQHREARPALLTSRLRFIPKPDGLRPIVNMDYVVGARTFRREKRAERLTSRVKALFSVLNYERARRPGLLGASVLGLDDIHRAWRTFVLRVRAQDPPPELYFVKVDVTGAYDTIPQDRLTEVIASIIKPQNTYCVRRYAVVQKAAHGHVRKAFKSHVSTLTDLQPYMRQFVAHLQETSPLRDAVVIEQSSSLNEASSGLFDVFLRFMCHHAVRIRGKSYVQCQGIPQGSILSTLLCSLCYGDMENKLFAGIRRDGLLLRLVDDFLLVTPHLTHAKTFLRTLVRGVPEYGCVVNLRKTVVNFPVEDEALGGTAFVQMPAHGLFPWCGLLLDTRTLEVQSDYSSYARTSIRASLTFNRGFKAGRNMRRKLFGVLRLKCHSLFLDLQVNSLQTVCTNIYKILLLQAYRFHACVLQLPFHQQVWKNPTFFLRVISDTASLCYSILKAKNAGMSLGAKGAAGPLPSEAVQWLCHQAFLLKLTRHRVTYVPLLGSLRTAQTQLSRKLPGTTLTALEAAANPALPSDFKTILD
T3 sequence (O60832 whole entry partner): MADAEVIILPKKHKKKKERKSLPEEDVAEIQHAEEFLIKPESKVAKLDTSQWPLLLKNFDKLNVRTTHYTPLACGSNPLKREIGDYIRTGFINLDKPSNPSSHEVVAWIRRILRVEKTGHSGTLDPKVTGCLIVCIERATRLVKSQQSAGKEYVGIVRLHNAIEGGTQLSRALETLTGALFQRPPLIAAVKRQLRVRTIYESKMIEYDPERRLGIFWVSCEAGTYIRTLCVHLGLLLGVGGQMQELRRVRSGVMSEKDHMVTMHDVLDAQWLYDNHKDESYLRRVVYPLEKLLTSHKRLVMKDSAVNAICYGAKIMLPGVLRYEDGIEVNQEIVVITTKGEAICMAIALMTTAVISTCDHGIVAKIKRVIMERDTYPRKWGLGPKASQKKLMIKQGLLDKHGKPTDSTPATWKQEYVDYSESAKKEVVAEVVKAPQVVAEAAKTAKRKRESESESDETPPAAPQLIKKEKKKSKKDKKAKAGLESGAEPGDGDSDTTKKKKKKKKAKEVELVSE
T3 sequence (Q9NPE3 whole entry partner): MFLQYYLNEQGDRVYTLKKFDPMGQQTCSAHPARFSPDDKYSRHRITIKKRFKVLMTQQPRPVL
T3 sequence (Q9NX24 whole entry partner): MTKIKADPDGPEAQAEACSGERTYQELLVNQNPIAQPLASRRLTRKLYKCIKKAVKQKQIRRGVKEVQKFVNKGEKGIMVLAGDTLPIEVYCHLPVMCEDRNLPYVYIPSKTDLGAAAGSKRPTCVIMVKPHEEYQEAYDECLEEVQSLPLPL
T3 sequence (Q9NY12 whole entry partner): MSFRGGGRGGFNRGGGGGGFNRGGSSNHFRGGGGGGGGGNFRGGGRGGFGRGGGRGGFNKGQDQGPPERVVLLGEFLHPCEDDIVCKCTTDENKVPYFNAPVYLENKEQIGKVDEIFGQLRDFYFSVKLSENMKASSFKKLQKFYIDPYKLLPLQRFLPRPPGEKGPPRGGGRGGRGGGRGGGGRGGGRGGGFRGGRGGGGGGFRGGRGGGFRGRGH
T3 sequence (Q9BUR4 whole entry partner): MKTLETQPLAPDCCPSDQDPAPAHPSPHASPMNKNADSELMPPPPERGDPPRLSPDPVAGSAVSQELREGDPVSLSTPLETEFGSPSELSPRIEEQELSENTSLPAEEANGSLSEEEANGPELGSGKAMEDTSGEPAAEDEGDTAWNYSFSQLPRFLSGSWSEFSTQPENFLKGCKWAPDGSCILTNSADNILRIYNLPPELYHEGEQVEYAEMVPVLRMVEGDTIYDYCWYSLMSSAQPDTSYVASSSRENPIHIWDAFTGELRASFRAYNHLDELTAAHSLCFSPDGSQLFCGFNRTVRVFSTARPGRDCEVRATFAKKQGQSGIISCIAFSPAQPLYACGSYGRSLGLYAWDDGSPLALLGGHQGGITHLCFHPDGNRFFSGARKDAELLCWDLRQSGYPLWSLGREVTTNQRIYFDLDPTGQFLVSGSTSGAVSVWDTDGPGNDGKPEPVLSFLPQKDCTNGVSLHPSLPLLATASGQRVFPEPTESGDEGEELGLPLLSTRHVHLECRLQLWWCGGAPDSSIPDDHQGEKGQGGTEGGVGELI
T1 sequence (O14746 whole entry): as the sequence (O14746 whole entry) above
T1 sequence (O60832 whole entry partner): as the sequence (O60832 whole entry partner) above
T1 sequence (Q9NPE3 whole entry partner): as the sequence (Q9NPE3 whole entry partner) above
T1 sequence (Q9NX24 whole entry partner): as the sequence (Q9NX24 whole entry partner) above
T1 sequence (Q9NY12 whole entry partner): as the sequence (Q9NY12 whole entry partner) above
T2 sequence (O14746 whole entry): as the sequence (O14746 whole entry) above
T2 sequence (O60832 whole entry partner): as the sequence (O60832 whole entry partner) above
T2 sequence (Q9NPE3 whole entry partner): as the sequence (Q9NPE3 whole entry partner) above
T2 sequence (Q9NX24 whole entry partner): as the sequence (Q9NX24 whole entry partner) above
T2 sequence (Q9NY12 whole entry partner): as the sequence (Q9NY12 whole entry partner) above
T2 sequence (Q9BUR4 whole entry partner): as the sequence (Q9BUR4 whole entry partner) above

C=C1C(=O)[C@](C)(C(=O)OC)[C@H](CCc2cn(Cc3ccc(F)cc3F)nn2)O[C@@H]1C [NU-1, methyl (2S,3R,6R)-2-(2-(1-(2,4-difluorobenzyl)-1H-1,2,3-triazol-4-yl)ethyl)-3,6-dimethyl-5 methylene-4-oxotetrahydro-2H-pyran-3-carboxylate]
time to complete inhibition ([1]; 100 μM): ~6 h | inhibition of telomere repeat synthesis ([1]; in words): low-micromolar range | endogenous telomerase activity [2]: completely eliminated | effect on viability [3]: did not affect viability | telomerase activity after washout ([4]; MCF7 cells washed, 4 h recovery): remained blocked | telomerase activity after washout ([4]; washed, fresh media, 24 h): did not restore | off-target protein labeling (loss of protein banding) [5]: minimal loss of protein banding and streaking | microsomal stability [6]: satisfactory performance
